The text below walks through data of patent publication US8435981B2, “2-(heterocyclylbenzyl)pyridazinone derivatives” (Merck Patent Gesellschaft mit Beschränkter Haftung, priority 2006, dated 2013).

Molecules are shown by their SMILES.

The first test has as its target T1, Met kinase (Homo sapiens, UniProt P08581). Kind of test: Met kinase inhibition, enzyme assay (flashplate method). On the set-up: 6His (N); purchased Upstate 14-526; host or cells: Sf21 insect cells (S. frugiperda), baculovirus. Format: biochemical. The procedure:
Flashplate Method (Met Kinase)
The test plates used are 96-well Flashplate® microtitre plates from Perkin Elmer (Cat. No. SMP200). The components of the kinase reaction described below are pipetted into the assay plate. The Met kinase and the substrate poly Ala-Glu-Lys-Tyr, (pAGLT, 6:2:5:1), are incubated for 3 hrs at room temperature with radioactively labelled ^33P-ATP in the presence and absence of test substances in a total volume of 100 μl. The reaction is terminated using 150 μl of a 60 mM EDTA solution. After incubation for a further 30 min at room temperature, the supernatants are filtered off with suction, and the wells are washed three times with 200 μl of 0.9% NaCl solution each time. The measurement of the bound radioactivity is carried out by means of a scintillation measuring instrument (Topcount NXT, Perkin-Elmer).
The full value used is the inhibitor-free kinase reaction. This should be approximately in the range 6000-9000 cpm. The pharmacological zero value used is staurosporin in a final concentration of 0.1 mM. The inhibitory values (IC50) are determined using the RS1_MTS program.
Kinase reaction conditions per well:
10 μl of substance to be tested in assay buffer with 10% of DMSO
10 μl of ATP (final concentration 1 μM cold, 0.35 μCi of ^33P-ATP)
50 μl of Met kinase/substrate mixture in assay buffer;
Target sequence in this assay (P08581 974-1390 limits assumed): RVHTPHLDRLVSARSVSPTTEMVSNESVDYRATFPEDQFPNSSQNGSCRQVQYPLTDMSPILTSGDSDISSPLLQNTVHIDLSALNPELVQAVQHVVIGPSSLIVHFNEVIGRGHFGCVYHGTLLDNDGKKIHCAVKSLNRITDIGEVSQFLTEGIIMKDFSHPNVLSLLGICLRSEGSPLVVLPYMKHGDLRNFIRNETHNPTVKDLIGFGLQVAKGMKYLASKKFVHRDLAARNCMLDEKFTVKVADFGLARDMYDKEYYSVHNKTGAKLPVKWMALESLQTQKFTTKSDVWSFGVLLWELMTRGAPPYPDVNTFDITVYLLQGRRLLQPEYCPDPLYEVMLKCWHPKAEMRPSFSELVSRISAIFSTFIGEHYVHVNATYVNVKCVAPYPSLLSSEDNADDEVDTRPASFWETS
The compound `Cc1nc(-c2cccc(Cn3nc(-c4cc(F)cc(F)c4)ccc3=O)c2)no1` [Compound A1, 6-(3,5-difluorophenyl)-2-[3-(5-methyl-1,2,4-oxadiazol-3-yl)benzyl]-2H-pyridazin-3-one] had an IC50 of 10 to 1000 nM. Compound `CCNc1nc(-c2cccc(Cn3nc(-c4cc(F)cc(F)c4)ccc3=O)c2)no1` [Compound A11, 6-(3,5-difluorophenyl)-2-[3-(5-ethylamino-1,2,4-oxadiazol-3-yl)benzyl]-2H-pyridazin-3-one] displayed an IC50 of 10 to 1000 nM. Take `CN(C)CCCNc1nc(-c2cccc(Cn3nc(-c4cc(F)cc(F)c4)ccc3=O)c2)no1` [Compound A12, 6-(3,5-difluorophenyl)-2-{3-[5-(3-dimethylaminopropylamino)-1,2,4-oxadiazol-3-yl]benzyl}-2H-pyridazin-3-one]: the IC50 is 10 to 1000 nM. Compound `CN1CCN(c2nc(-c3cccc(Cn4nc(-c5cc(F)cc(F)c5)ccc4=O)c3)no2)CC1` [Compound A20, 6-(3,5-difluorophenyl)-2-{3-[5-(4-methylpiperazin-1-yl)-1,2,4-oxadiazol-3-yl]benzyl}-2H-pyridazin-3-one] registered an IC50 of 10 to 1000 nM. `CN1CCN(C(=O)c2nc(-c3cccc(Cn4nc(-c5cc(F)cc(F)c5)ccc4=O)c3)no2)CC1` [Compound A21, 6-(3,5-difluorophenyl)-2-{3-[5-(4-methylpiperazine-1-carbonyl)-1,2,4-oxadiazol-3-yl]benzyl}-2H-pyridazin-3-one] had an IC50 of 10 to 1000 nM. `O=c1ccc(-c2cc(F)cc(F)c2)nn1Cc1cccc(-c2noc(NCCN3CCOCC3)n2)c1` [Compound A22] displayed an IC50 of 10 to 1000 nM.

As for `Cc1cnc(-c2cccc(Cn3nc(-c4cccc(Cl)c4)ccc3=O)c2)o1` [Compound A33], the IC50 was 10 to 1000 nM.

Compound `CN1CCC(N(C)c2nc(-c3cccc(Cn4nc(-c5cc(F)cc(F)c5)ccc4=O)c3)no2)CC1` [Compound A46, 6-(3,5-difluorophenyl)-2-(3-{5-[methyl-(1-methylpiperidin-4-yl)-amino]-1,2,4-oxadiazol-3-yl}benzyl)-2H-pyridazin-3-one] came in with an IC50 of 10 to 1000 nM. In turn, `CCN1CCN(c2nc(-c3cccc(Cn4nc(-c5cc(F)cc(F)c5)ccc4=O)c3)no2)CC1` [Compound A48] displayed an IC50 of 10 to 1000 nM. Same read-out and setting: for `COCCN1CCN(c2nc(-c3cccc(Cn4nc(-c5cc(F)cc(F)c5)ccc4=O)c3)no2)CC1` [Compound A50, 6-(3,5-Difluorophenyl)-2-(3-{5-[4-(2-methoxyethyl)-piperazin-1-yl]-1,2,4-oxadiazol-3-yl}benzyl)-2H-pyridazin-3-one] the value was 10 to 1000 nM. The compound `CN1CCC(c2cnc(-c3cccc(Cn4nc(-c5cc(F)cc(F)c5)ccc4=O)c3)o2)CC1` [Compound A88, 6-(3,5-difluorophenyl)-2-{3-[5-(1-methylpiperidin-4-yl)oxazol-2-yl]benzyl}-2H-pyridazin-3-one] returned a concentration for half-maximal inhibition (IC50) of 10 to 1000 nM. As to `O=c1ccc(-c2cc(F)cc(F)c2)nn1Cc1cccc(-c2ncc(C3CCNCC3)s2)c1` [Compound A91, 6-(3,5-difluorophenyl)-2-[3-(5-piperidin-4-ylthiazol-2-yl)benzyl]-2H-pyridazin-3-one], the IC50 lay within 10 to 1000 nM.

Another test deals with T1, Met kinase. Kind of test: Met kinase inhibition, cell assay. Format: cell-based.
Target sequence in this assay (P08581 25-1390): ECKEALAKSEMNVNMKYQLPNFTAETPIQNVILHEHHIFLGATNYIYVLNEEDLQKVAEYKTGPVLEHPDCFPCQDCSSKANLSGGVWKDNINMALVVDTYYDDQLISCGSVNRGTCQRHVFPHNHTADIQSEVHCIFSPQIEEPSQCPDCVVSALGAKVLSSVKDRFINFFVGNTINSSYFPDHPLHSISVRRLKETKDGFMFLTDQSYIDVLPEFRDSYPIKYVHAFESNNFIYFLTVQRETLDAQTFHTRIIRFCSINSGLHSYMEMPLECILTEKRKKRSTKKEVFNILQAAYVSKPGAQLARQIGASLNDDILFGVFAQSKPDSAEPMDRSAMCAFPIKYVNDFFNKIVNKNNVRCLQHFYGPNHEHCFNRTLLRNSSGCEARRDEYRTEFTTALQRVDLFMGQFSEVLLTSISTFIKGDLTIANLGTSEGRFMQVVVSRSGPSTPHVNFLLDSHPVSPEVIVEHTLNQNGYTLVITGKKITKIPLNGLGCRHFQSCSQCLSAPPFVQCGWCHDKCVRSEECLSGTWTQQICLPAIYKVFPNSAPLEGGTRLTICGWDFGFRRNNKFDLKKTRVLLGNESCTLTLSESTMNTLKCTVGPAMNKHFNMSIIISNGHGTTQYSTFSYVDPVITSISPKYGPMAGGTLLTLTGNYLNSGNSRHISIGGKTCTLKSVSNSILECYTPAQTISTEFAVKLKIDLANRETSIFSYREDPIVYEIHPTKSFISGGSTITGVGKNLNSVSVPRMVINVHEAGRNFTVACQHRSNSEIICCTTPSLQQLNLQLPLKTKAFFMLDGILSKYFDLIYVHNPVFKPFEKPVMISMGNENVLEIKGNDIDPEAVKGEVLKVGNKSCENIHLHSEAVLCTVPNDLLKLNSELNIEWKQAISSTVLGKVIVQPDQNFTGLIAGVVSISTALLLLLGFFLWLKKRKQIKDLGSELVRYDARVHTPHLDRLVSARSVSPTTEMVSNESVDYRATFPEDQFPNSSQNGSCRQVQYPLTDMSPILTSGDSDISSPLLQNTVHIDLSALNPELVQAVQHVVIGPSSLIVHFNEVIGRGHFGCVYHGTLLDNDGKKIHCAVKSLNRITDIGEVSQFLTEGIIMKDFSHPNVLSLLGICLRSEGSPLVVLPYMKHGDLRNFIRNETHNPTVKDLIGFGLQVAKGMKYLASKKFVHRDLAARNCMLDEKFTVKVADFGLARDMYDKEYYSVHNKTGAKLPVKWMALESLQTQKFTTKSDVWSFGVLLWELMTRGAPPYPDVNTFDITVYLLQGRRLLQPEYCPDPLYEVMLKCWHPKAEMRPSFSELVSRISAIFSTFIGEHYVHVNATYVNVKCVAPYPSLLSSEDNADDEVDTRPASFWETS
Consider `O=c1ccc(-c2cc(F)cc(F)c2)nn1Cc1cccc(-c2noc(N3CCN(CCO)CC3)n2)c1` [Compound A111, 6-(3,5-difluorophenyl)-2-(3-{5-[4-(2-hydroxyethyl)piperazin-1-yl]-1,2,4-oxadiazol-3-yl}benzyl)-2H-pyridazin-3-one], for which the IC50 was 10 to 1000 nM. As for `CCOCCN1CCN(c2nc(-c3cccc(Cn4nc(-c5cc(F)cc(F)c5)ccc4=O)c3)no2)CC1` [Compound A123, 6-(3,5-Difluorophenyl)-2-(3-{5-[4-(2-ethoxyethyl)-piperazin-1-yl]-1,2,4-oxadiazol-3-yl}benzyl)-2H-pyridazin-3-one], the IC50 lay in the range of 10 to 1000 nM. `COCCCN1CCN(c2nc(-c3cccc(Cn4nc(-c5cc(F)cc(F)c5)ccc4=O)c3)no2)CC1` [Compound A124, 6-(3,5-Difluorophenyl)-2-(3-{5-[4-(3-methoxypropyl)-piperazin-1-yl]-1,2,4-oxadiazol-3-yl}benzyl)-2H-pyridazin-3-one] registered a half-maximal inhibitory concentration (IC50) of 10 to 1000 nM.

One may read the IC50 as the concentration that gives 50% inhibition.
